Key:
Fusarium graminearum = type: in vivo; settings: 2 L/ha of 10% w/w solution; one application 2 days after inoculation; incidence of affected leaves vs untreated
Ca. Phytoplasma vitis = assay: Open field testing on phytoplasma, ddPCR quantification of DNA and RNA in Pervinca rosea; type: in vivo; settings: 2 L/ha, endotherapy treatment, 48 hours after exposure, high values = reduced/no antibacterial activity; for % DNA: untreated 91; for % RNA: untreated 94
Procedure: Open Filed Testing on Phytoplasma—Antibacterial Activity on Ca. Phytoplasma vitis by Mixtures of Fatty Acids and Peptides
The activity on phytoplasma of three peptides (SEQ.ID.NO.: 1, 2 and 9), of crotonic and pelargonic acid and of the mixtures of these fatty acids with the aforementioned peptides were evaluated on Pervinca rosea suitably contaminated by Ca. Phytoplasma vitis.
The peptides of SEQ.ID.NO.: 1, 2 and 9 were dissolved in water at a concentration of 10% w/w. Aqueous solutions of crotonic and pelargonic acids were prepared at a concentration of 10% w/w. Aqueous solutions of peptides and solutions of fatty acids were mixed together, in order to obtain six different mixtures at a concentration of 10% w/w of peptide and acid.
The evaluation of the efficacy of the products used was evaluated with ddPCR (Droplet Digital PCR) technique for the quantification of the genetic material (DNA and RNA) after 48 hours from exposure to endotherapy treatment. High % DNA and RNA values are related to reduced/no antibacterial activity.

| Compound | Efficacy (%) 1° check (Fusarium graminearum) [%] | Efficacy (%) 2° check (Fusarium graminearum) [%] | Efficacy (%) 3° check (Fusarium graminearum) [%] | % DNA (Ca. Phytoplasma vitis) [%] | % RNA (Ca. Phytoplasma vitis) [%] |
| --- | --- | --- | --- | --- | --- |
| C/C=C/C(=O)O [Crotonic acid] | 8 | 7 | 10 | 76 | 84 |
| CCCCCCCCC(=O)O [Pelargonic acid] | 10 | 8 | 9 | 84 | 86 |
| Hs_AFP1: plant defensin antimicrobial peptide, SEQ.ID.NO: 1, per se known (DGVKLCDVPSGTWSGHCGSSSKCSQQCKDREHFAYGGACHYQFPSVKCFCKRQC; None) | 35 | 27.4 | 26.5 | 75 | 78 |
| Ps_Def1: plant defensin antimicrobial peptide, SEQ.ID.NO: 9 (RMCKTPSGKFKGYCVNNTNCKNVCRTEGFPTGSCDFHVAGRKCYCYKPCP; None) | 30 | 27 | 32 | 82 | 80 |
| Rs_AFP2: plant defensin antimicrobial peptide, SEQ.ID.NO: 2, per se known (QKLCQRPSGTWSGVCGNNNACKNQCIRLEKARHGSCNYVFPAHKCICYFPC; None) | 38 | 34 | 25.4 | 81 | 80 |

From patent publication US20240245059A1 (priority 2021, published 2024)
